These results are taken from ChEMBL document CHEMBL1132462, “Molecular modeling studies on G-quadruplex complexes of telomerase inhibitors: structure-activity relationships” (J Med Chem, 1999).

The target of the assay is Telomerase reverse transcriptase (Homo sapiens, UniProt O14746). In words: Inhibitory activity against Telomerase evaluated by TRAP Assay studies.
Sequence of Telomerase reverse transcriptase (O14746 whole entry): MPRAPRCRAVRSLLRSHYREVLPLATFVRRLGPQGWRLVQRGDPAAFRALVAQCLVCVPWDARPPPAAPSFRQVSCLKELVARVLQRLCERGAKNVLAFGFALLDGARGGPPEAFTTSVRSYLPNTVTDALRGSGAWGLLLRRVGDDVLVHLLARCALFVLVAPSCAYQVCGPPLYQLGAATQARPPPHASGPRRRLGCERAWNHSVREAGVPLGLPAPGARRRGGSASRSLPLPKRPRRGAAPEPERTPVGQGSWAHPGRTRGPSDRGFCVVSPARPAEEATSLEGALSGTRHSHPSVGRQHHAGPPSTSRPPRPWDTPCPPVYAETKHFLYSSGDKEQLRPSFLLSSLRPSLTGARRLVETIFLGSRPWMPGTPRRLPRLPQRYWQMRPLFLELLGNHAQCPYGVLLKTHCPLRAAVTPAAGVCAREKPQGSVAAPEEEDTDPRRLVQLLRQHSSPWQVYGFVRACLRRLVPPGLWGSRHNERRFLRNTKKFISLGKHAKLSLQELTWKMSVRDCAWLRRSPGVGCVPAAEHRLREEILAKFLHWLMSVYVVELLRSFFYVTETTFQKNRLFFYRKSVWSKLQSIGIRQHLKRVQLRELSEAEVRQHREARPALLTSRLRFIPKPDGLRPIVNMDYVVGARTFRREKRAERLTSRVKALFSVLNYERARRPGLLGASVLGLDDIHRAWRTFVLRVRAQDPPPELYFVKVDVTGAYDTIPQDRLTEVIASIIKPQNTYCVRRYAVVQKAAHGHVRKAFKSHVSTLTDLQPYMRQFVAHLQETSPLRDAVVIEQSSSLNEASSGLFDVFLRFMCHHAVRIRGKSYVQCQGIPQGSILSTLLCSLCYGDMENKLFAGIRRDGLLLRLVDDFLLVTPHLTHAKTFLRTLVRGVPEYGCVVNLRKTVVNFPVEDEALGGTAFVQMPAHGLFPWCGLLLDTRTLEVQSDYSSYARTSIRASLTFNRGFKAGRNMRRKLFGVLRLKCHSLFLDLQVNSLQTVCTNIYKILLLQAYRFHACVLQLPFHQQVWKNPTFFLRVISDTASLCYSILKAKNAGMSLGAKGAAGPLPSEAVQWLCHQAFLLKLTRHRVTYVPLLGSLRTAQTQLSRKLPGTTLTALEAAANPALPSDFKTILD

Turning to `O=C(CCN1CCCCCC1)Nc1ccc2c(c1)C(=O)c1ccc(NC(=O)CCN3CCCCCC3)cc1C2=O`, the half-inhibitory concentration (IC50) was 13 µM. For `O=C(CCN1CCCCCCC1)Nc1ccc2c(c1)C(=O)c1ccc(NC(=O)CCN3CCCCCCC3)cc1C2=O`, the concentration for half-maximal inhibition (IC50) is > 50 µM.

In the case of `CC1(C)CC2CC(C)(CN2CCC(=O)Nc2ccc3c(c2)C(=O)c2ccc(NC(=O)CCN4CC5(C)CC4CC(C)(C)C5)cc2C3=O)C1`, the IC50 was > 50 µM.
